Data set [1] is described as follows: Evaluation of the heat stability (sublimation). Particulars: 1000 mg allowed to stand at 90° C. for 20 hours. Format: physicochemical. The source says: The results of the residual weight, sublimation rate (%) and sublimation rate (%) converted into a hinokitiol were shown in Table 4.
Data set [2] relates to Corynebacterium minutissiumum ATCC 23348. In words: Antibacterial test, serial double dilution method (MIC). Format: cell-based. The conditions noted are these: Muller-Hilton agar, 37° C., 24 hours, concentration converted into hinokitiol. The source says: (§1) The clathrate compound of the present invention and non-clathrate compounds were each subjected to an antibacterial test. Aerobic and anaerobic bacteria used in the test are as follows:
Cm: Corynebacterium minutissiumum ATCC 23348
(§2) The samples used in the antibacterial test are as follows in which butylparabene was used as a control compound. The concentrations of clathrate compounds were all measured by converting into the concentrations of a hinokitiol. Samples of antibacterial agents
(§3) Method: Serial Double Dilution Method
(§4) As for the culture medium, an aqueous solution containing 38 g/l of a Muller-Hilton agar medium (manufactured by DEFCO) was used for aerobic bacteria and an aqueous solution containing 59 g/l of a GAM agar medium (manufactured by Nissui Pharmaceutical Co., Ltd.) for anaerobic bacteria. Each subject compound was added to each corresponding medium in a manner that the concentration of a hinokitiol was 400 μg/ml and diluted according to the serial double dilution method using the same medium. 10 ml of each resulting medium was poured into a plastic Schale with an inside diameter of 90 mm and was solidified. The solidified medium in the Schale was divided. 0.1 ml of a distilled water suspension containing the subject microorganisms (the number of microorganisms: 10^6-10^9/ml) was inoculated into each compartment and incubated at 37° C. for 24 hours. […]

Data set [3] has as its system Malassezia furfur IFO 0656. The description is as above. Format: cell-based. Particulars: Muller-Hilton agar, 37° C., 24 hours, concentration converted into hinokitiol.
Description: as §1
Mf: Malassezia furfur IFO 0656
as §2, §3, §4

Data set [4] has as its system Escherichia coli IFO 3972. Described as above. Format: cell-based. Particulars: Muller-Hilton agar, 37° C., 24 hours, concentration converted into hinokitiol.
Description: as §1
Ec: Escherichia coli IFO 3972
as §2, §3, §4

Data set [5] concerns Corinebacterium xerosis JCM 1324. Described as above. Format: cell-based. Particulars: Muller-Hilton agar, 37° C., 24 hours; concentration converted into hinokitiol.
Description: as §1
Cx: Corinebacterium xerosis JCM 1324
as §2, §3, §4

Data set [6] has as its system Serratia marcessenes IFO 3736. The data set is described as above. The conditions noted are these: Muller-Hilton agar, 37° C., 24 hours, concentration converted into hinokitiol. Format: cell-based.
Description: as §1
Sm: Serratia marcessenes IFO 3736
as §2, §3, §4

Data set [7] deals with Staphylococcus aureus IAM 1011. The description is as above. Format: cell-based. The conditions noted are these: Muller-Hilton agar, 37° C., 24 hours, concentration converted into hinokitiol.
Description: as §1
Sa: Staphylococcus aureus IAM 1011
as §2, §3, §4

The subject of data set [8] is Proteus vulgaris IFO 3167. The description is as above. Format: cell-based. The conditions noted are these: Muller-Hilton agar, 37° C., 24 hours, concentration converted into hinokitiol.
Description: as §1
Pv: Proteus vulgaris IFO 3167
as §2, §3, §4

The nature of data set [9]: Solubility in water at 15° C. Format: physicochemical. Here is the method: The solubilities of the above various branched CD clathrate compounds prepared in the above examples and reference example in water at 15° C. are shown in Table 1.
Data set [10] concerns Staphylococcus epidermidis JCM 2414. In words: Antibacterial test, serial double dilution method (MIC). Format: cell-based. The conditions noted are these: JCM2414, Muller-Hilton agar, 37° C., 24 hours, concentration converted into hinokitiol.
Description: as §1
Se: Staphylococcus epidermidis JCM 2414
as §2, §3, §4

Converted amounts (≈) assume the structure as drawn. Where only a bound is given, the exact number is not on record here.

Regarding `CC(C)c1cccc(=O)c([O-])c1.[Na+]` [sodium salt of hinokitiol], in data set [1], the Residual weight amounted to 764 mg and the Sublimation rate is listed as 23.6%.

As to `CCCCOC(=O)c1ccc(O)cc1` [Butylparabene], the “MIC, Cm” value in [2] came out at 100 µg/mL (≈ 515 µM). In data set [3], the “MIC, Mf” value was found to be 100 µg/mL (≈ 515 µM). In addition, in data set [4], the “MIC, Ec” value worked out at 400 µg/mL (≈ 2060 µM). The “MIC, Cx” value in [5] came to 100 µg/mL (≈ 515 µM). For the same compound, the “MIC, Sm” value in data set [6] is >400 µg/mL. Besides, in data set [7], the “MIC, Sa” value was 100 µg/mL (≈ 515 µM). In addition, the “MIC, Pv” value in data set [8] was determined as 100 µg/mL (≈ 515 µM).

With `CC(C)c1cccc(=O)c(O)c1` [Hinokitiol], the minimum inhibitory concentration (MIC) (in general, the least concentration at which growth counts as inhibited) worked out at 50 µg/mL (≈ 304 µM) in [2] (Corynebacterium, ATCC23348); 50 µg/mL (≈ 304 µM) in [3] (Malassezia furfur, IFO0656); 50 µg/mL (≈ 304 µM) in data set [4] (Escherichia coli, IFO3972); 50 µg/mL (≈ 304 µM) in data set [5]; 50 µg/mL (≈ 304 µM) in data set [10]; 200 µg/mL (≈ 1220 µM) in [6] (Serratia, IFO3736). Moreover, the minimal inhibitory concentration (MIC) in data set [7] (Staphylococcus aureus, IAM1011) came out at 50 µg/mL (≈ 304 µM); in [8] (Proteus vulgaris, IFO3167), 50 µg/mL (≈ 304 µM). The Solubility in water in data set [9] was <0.05%. Besides, the Residual weight in data set [1] is on record as 8 mg. Also, the Sublimation rate in data set [1] amounted to 99.2%.

For the origin of these results see US6355627B1, “Branched cyclodextrin clathrate compound of hinokitiols and composition containing the same” (Takasago International Corporation, priority 1999, dated 2002).
